Source: US5721356A, “Orally active adenosine kinase inhibitors” (Gensia, Inc., priority 1995, dated 1998)
Where a name gives a salt, the structure may show the parent alone. Read-outs that look alike come from different tables or passages of the source.

Legend:
[1] = tested on: rat cardiomyocytes; details: cited from earlier work
[2] = tested on: isolated guinea pig hearts; details: cited from earlier work
[3] = tested on: rat and guinea pig brain slices; details: cited from earlier work
[4] = tested on: anesthetized rats; details: cited from earlier work
[5] = tested on: mice; details: cited from earlier work
[6] = tested on: mice; details: interpreted as skeletal muscle relaxation; cited from earlier work
[7] = tested on: ischemic cerebral injury; details: Phillis et al.; cited from earlier work
[8] = tested on: isolated rat hearts; details: perfused with 5-iodotubercidin alone, cited from earlier work
[9] = tested on: dog hearts; details: cited from earlier work
[10] = tested on: carrageenan-induced paw swelling in rats; assay: Anti-inflammatory activity, carrageenan paw swelling; assay type: in vivo, rat; details: po, 10 mg/kg, paw swelling 3 hours after carrageenan, vs vehicle
Method: Carrageenan (Type λ) was suspended in sterile PBS at 1% (w/v), autoclaved for 30 minutes, and stored at room temperature. Rats were pretreated with vehicle or AK inhibitor (10 mg/kg) by oral gavage or i.p. administration and the volume of the left hind paw was measured using a water displacement plethysmometer (Stoelting Co., Wood Dale, Ill.). One hour after oral treatment or 30 minutes after i.p. treatment, the rats were briefly anesthetized, and 0.1 ml of the carrageenan solution was injected subcutaneously into the planar surface of the left hind paw. The ensuing paw swelling was measured by plethysmometry after 3 hours. The paw volume in millileters was subtracted from the pre-injection paw volume. Data are presented as the percent inhibition of paw swelling in AK inhibitor treated animals, compared to vehicle treated control animals.

[11] = tested on: male SA rats; assay: Analgesic activity, tail flick model; assay type: in vivo; details: Rattus norvegicus, po
Source text: (§1) Ther., 250:3, 915-922 (1989). See also, Life Sciences 51:171-76 (1992). These models measure pain avoidance and tolerance in response to a regulated stimulus, and compare the response of animals before and after they are given test compound.

[12] = tested on: male SA rats; assay: Analgesic activity, hot plate model; assay type: in vivo; details: Rattus norvegicus, po
Source text: as §1

[13] = tested on: male SA rats; assay: Anticonvulsant activity, maximal electroshock (MES) model, suppression of hind limb tonic extension; assay type: in vivo; details: Rattus norvegicus, 1 h, one hour before seizure testing
[14] = molecular target: T1, partially purified pig heart adenosine kinase (Sus scrofa, UniProt A0A5G2R0F5); assay: Adenosine kinase (AK) inhibition; assay type: biochemical
T1 construct: partially purified pig heart adenosine kinase; from tissue; host or cells: pig heart
T1 sequence (A0A5G2R0F5 1-362): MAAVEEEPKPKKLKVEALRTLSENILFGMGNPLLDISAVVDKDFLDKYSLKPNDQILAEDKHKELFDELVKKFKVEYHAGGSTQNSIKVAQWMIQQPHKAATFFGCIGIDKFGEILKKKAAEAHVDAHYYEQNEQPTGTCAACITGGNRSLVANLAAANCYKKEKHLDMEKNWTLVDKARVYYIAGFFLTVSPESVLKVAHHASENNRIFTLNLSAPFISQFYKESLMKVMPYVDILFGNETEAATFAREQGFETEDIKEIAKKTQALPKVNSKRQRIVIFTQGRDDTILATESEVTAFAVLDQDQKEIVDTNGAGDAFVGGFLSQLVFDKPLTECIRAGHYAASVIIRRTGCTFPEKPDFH
Method: Adenosine kinase activity was measured essentially as described by Yamada et al. Biochim. Biophys. Acta 660, 36-43 […] with a few minor modifications. Assay mixtures contained 50 mM TRIS-maleate buffer, pH 7.0, 0.1% BSA, 1 mM ATP 1 mM MgCl2, 0.5 μM [U-^14 C]adenosine (400-600 mCi/mmol) and varying duplicate concentrations of inhibitor. The reactions were initiated by addition of approximately 0.1 μU partially purified pig heart adenosine kinase, where one unit is defined as that amount of enzyme required to phosphorylate 1 μmol adenosine per minute. The reactions were incubated for 20 minutes at 37° C. The assay was quenched upon spotting 30 μL aliquots onto 2 cm^2 pieces of Whatman DE81 anion exchange paper. The paper squares were washed for 3 minutes in 6 L distilled/deionized water to remove the unreacted adenosine. […] The amount of ^14 C-AMP was quantified by scintillation counting.

[15] = Oral bioavailability in dogs (oral vs intravenous AUC); assay type: in vivo, dog (female beagles); details: dog, plasma, 10 mg/kg, read-out: % Oral Availability
Method: Oral bioavailability was determined by comparing the dose corrected areas under the plasma-concentration time curve (AUC) to infinity for the each tested compound, given orally and intravenously in dogs. […] One dog received this solution at an infusion rate of 0.1 mL/min for 20 minutes. The other dog received a 0.2 mL/in infusion for 10 minutes. […] The plasma was separated within 10 minutes of blood collection and was stored frozen. The plasma concentration of compound was then determined for these IV infusions. […] The plasma concentration of compound was determined for this oral administration. The samples were assayed for intact adenosine kinase inhibitor by high performance liquid chromatography (HPLC). An internal standard was added to each test sample and standard sample. Each was then extracted with 10 volumes of 1% v/v dimethylsulfoxide in acetonitrile. […] The dried residue was reconstituted in mobile phase and the contents were analyzed for the adenosine kinase inhibitor (AKI) on HPLC. […] Pharmacokinetic parameters were calculated from the plasma concentration vs. time data, using standard non-compartmental methods. […] et al., Pharmacokinetics., 2[…]. (1983).

[16] = tested on: female SA rats; assay: Liver toxicity (serum liver enzymes and total bilirubin); assay type: in vivo, rat; details: iv infusion 2 x 37.5 μmole/kg, 12 hours after second dose
Method: Female SA rats (150-200 g) were anesthetized with halothane and cannulated via the internal jugular vein. The animals wee allowed to recover for 3 days. […] Twelve hours later, an additional 37.5 μmole/kg was infused over 20 minutes (total dose=75 μmole/kg). […] Liver enzymes (serum glutamic-oxaloacetic transaminase (SGOT), serum glutamic-pyruvic transaminase (SGPT), alkaline phosphatase) and total bilirubin in the serum samples were dermined by a commercial laboratory.

[17] = ip, >5 or <5 = fewer or more than 50% inhibited in initial screen at 5 mg/kg ip, read-out: Anticonvulsant ED50 (MES), ip
[18] = po, fasted, read-out: Anticonvulsant ED50 (MES), po
[19] = ip, >5 or <5 = fewer or more than 50% inhibited in initial screen at 5 mg/kg ip

**Q.** With `OC[C@H]1O[C@@H](n2cnc3c2NC=NC[C@H]3O)C[C@@H]1O` [2'-deoxycoformycin] as the compound, how does the “effect on adenosine release” value ([1]; inhibition of adenosine deaminase alone) read?
**A.** no effect on adenosine release from the cells

**Q.** For `NC[C@H]1O[C@@H](n2cnc3c(N)ncnc32)[C@H](O)[C@@H]1O` [5'-amino-5'-deoxyadenosine], which “adenosine release effects without ADA inhibition” value ([2]; absence of ADA inhibition) is on record?
**A.** not apparent in the absence of ADA inhibition

**Q.** And the “increase of adenosine release” value ([2]; perfusion medium, in the presence of EHNA)?
**A.** 15 fold

**Q.** And the “increase in adenosine release” value ([1]; inhibition of ADA together with adenosine kinase)?
**A.** 6 fold

**Q.** With `C[C@H]1O[C@@H](n2cc(I)c3c(N)ncnc32)[C@H](O)[C@@H]1O` [5'-deoxy-5-iodotubercidin] as the compound, how does the adenosine uptake [3] read?
**A.** adenosine uptake was reportedly inhibited

**Q.** What about the “blood pressure and heart rate” value [4] of the same compound?
**A.** decrease blood pressure and heart rate in anesthetized rats

**Q.** And the hypothermia [5]?
**A.** hypothermia in mice

**Q.** What about the “flaccidity and spontaneous locomotor activity” value [6] of the same compound?
**A.** pronounced general flaccidity and much-reduced spontaneous locomotor activity in mice

**Q.** Which results are given for `Nc1ncnc2c1c(I)cn2[C@@H]1O[C@H](CO)[C@@H](O)[C@H]1O` [5-iodotubercidin]?
**A.** adenosine uptake [3]: adenosine uptake was reportedly inhibited; blood pressure and heart rate [4]: decrease blood pressure and heart rate in anesthetized rats; hypothermia [5]: hypothermia in mice; protection against ischemic cerebral injury [7]: does not protect against ischemic cerebral injury; flaccidity and spontaneous locomotor activity [6]: pronounced general flaccidity and much-reduced spontaneous locomotor activity in mice; perfusate adenosine concentration ([8]; hypoxic, anoxic or ischemic conditions): no increase in perfusate adenosine concentration; perfusate adenosine concentration ([8]; normoxic conditions): no increase in perfusate adenosine concentration; effects in ischemia and reperfusion model [9]: inconsistent effects

**Q.** What does the source list for `C[C@H]1O[C@@H](n2cc(-c3ccccc3)c3c(Nc4ccc(F)cc4)ncnc32)[C@H](O)[C@@H]1O` [#1, 4-N-(4-fluorophenyl)amino-5-phenyl-7-(5-deoxy-1-β-D-ribofuranosyl)pyrrolo(2,3-d)pyrimidine]?
**A.** Carrageenan Paw (% inh) [10]: 0.2%; ED50 [11]: < 10 mg/kg; ED50 [12]: 16.9 mg/kg; ED50 [13, 17]: 1.9 mg/kg; ED50 [13, 18]: 5.1 mg/kg; IC50 [14]: 11 nM

**Q.** Which bioavailability [15] does the source give for `C[C@H]1O[C@@H](n2cc(-c3ccccc3)c3c(Nc4ccc(C#N)cc4)ncnc32)[C@H](O)[C@@H]1O` [#21, 4-N-(4-cyanophenyl)amino-5-phenyl-7-(5-deoxy-1-β-D-ribofuranosyl)pyrrolo[2,3-d]pyrimidine] here?
**A.** 23%

**Q.** What about the ED50 [13, 18] of the same compound?
**A.** > 20 mg/kg

**Q.** What about the IC50 [14] of the same compound?
**A.** 14 nM

**Q.** With `COc1ccc(-c2cn([C@@H]3O[C@H](C)[C@@H](O)[C@H]3O)c3ncnc(Nc4ccc(C#N)cc4)c23)cc1` [#27, 4-N-(4-cyanophenyl)amino-5-(4-methoxyphenyl)-7-(5-deoxy-1-β-D-ribofuranosyl)pyrrolo[2,3-d]pyrimidine] as the compound, how does the bioavailability [15] read?
**A.** 100%

**Q.** Which results are given for `C[C@H]1O[C@@H](n2cc(I)c3c(N)ncnc32)[C@H](O)[C@@H]1O` [REF. A]?
**A.** SGPT [16]: 76 IU/L; Total Bilirubin [16]: 0.76 mg/dL

**Q.** With `NC[C@H]1O[C@@H](n2nc(Br)c3c(N)ncnc32)[C@H](O)[C@@H]1O` [REF. B, 4amino-1-(5-amino-5-deoxy-1-D-ribofuranosyl)-3-bromopyrazolo[3,4d]pyrimidne HCL] as the compound, how does the SGOT [16] read?
**A.** 100 IU/L

**Q.** And the SGPT [16]?
**A.** 41 IU/L

**Q.** And the “Total Bilirubin” value [16]?
**A.** 0.30 mg/dL

**Q.** Which results are given for `CCOc1ccc(Nc2ncnc3c2c(-c2ccccc2)cn3[C@@H]2O[C@H](C)[C@@H](O)[C@H]2O)cc1` [compound 28]?
**A.** Carrageenan Paw (% inh) [10]: 31.0%; ED50 at 5 mg/kg [13, 19]: < 5 mg/kg; IC50 [14]: 4 nM

**Q.** What does the source list for `COc1ccc(-c2cn([C@@H]3O[C@H](C)[C@@H](O)[C@H]3O)c3ncnc(Nc4ccc(C(N)=O)cc4)c23)cc1` [compound 31]?
**A.** Carrageenan Paw (% inh) [10]: -5.8%; ED50 at 5 mg/kg [13, 19]: > 5 mg/kg; IC50 [14]: 2 nM

**Q.** With `C[C@H]1O[C@@H](n2cc(-c3ccccc3)c3c(Nc4ccc(S(N)(=O)=O)cc4)ncnc32)[C@H](O)[C@@H]1O` [compound 34] as the compound, how does the “Carrageenan Paw (% inh)” value [10] read?
**A.** -0.2%

**Q.** What about the ED50 at 5 mg/kg [13, 19] of the same compound?
**A.** 5 mg/kg

**Q.** And the IC50 [14]?
**A.** 5 nM

**Q.** What does the source list for `C[C@H]1O[C@@H](n2nc(-c3ccccc3)c3c(Nc4ccccc4)ncnc32)[C@H](O)[C@@H]1O` [compound 86]?
**A.** ED50 at 5 mg/kg [13, 19]: 12.3 mg/kg; ED50 [13, 18]: > 20 mg/kg; IC50 [14]: 4.5 nM

**Q.** For `[N-]=[N+]=NC[C@H]1O[C@@H](n2nc(-c3ccccc3)c3c(Nc4ccccc4)ncnc32)[C@H](O)[C@@H]1O` [compound 87], which ED50 at 5 mg/kg [13, 19] is on record?
**A.** 2.31 mg/kg

**Q.** And the ED50 [13, 18]?
**A.** > 2.3 mg/kg

**Q.** And the IC50 [14]?
**A.** 4.5 nM

**Q.** With `OC[C@H]1O[C@@H](n2nc(-c3ccccc3)c3c(Nc4ccccc4)ncnc32)[C@H](O)[C@@H]1O` [compound 88] as the compound, how does the ED50 [13, 17] read?
**A.** 2.62 mg/kg

**Q.** What about the ED50 [13, 18] of the same compound?
**A.** > 2.6 mg/kg

**Q.** What about the IC50 [14] of the same compound?
**A.** 5 nM

**Q.** With `COc1ccc(Nc2ncnc3c2c(-c2ccccc2)nn3[C@@H]2O[C@H](C)[C@@H](O)[C@H]2O)cc1` [compound 89] as the compound, how does the ED50 at 5 mg/kg [13, 19] read?
**A.** 5 mg/kg

**Q.** And the IC50 [14]?
**A.** 17 nM

**Q.** Which results are given for `COc1ccc(Nc2ncnc3c2c(-c2ccccc2)nn3[C@@H]2O[C@H](CN=[N+]=[N-])[C@@H](O)[C@H]2O)cc1` [compound 90]?
**A.** ED50 at 5 mg/kg [13, 19]: > 3.4 mg/kg; IC50 [14]: 8 nM

**Q.** What does the source list for `Cc1ccc(-c2nn([C@@H]3O[C@H](CN=[N+]=[N-])[C@@H](O)[C@H]3O)c3ncnc(Nc4ccccc4)c23)cc1` [compound 93]?
**A.** ED50 at 5 mg/kg [13, 19]: > 5 mg/kg; IC50 [14]: 20 nM

**Q.** For `COc1ccc(-c2nn([C@@H]3O[C@H](CN=[N+]=[N-])[C@@H](O)[C@H]3O)c3ncnc(Nc4ccccc4)c23)cc1` [compound 94], which ED50 at 5 mg/kg [13, 19] is on record?
**A.** > 5 mg/kg

**Q.** What about the IC50 [14] of the same compound?
**A.** 3 nM

**Q.** Which ED50 at 5 mg/kg [13, 19] does the source give for `[N-]=[N+]=NC[C@H]1O[C@@H](n2nc(-c3ccc(Cl)cc3)c3c(Nc4ccccc4)ncnc32)[C@H](O)[C@@H]1O` [compound 96] here?
**A.** > 5 mg/kg

**Q.** What about the IC50 [14] of the same compound?
**A.** 15 nM

**Q.** For `[N-]=[N+]=NC[C@H]1O[C@@H](n2nc(-c3cccs3)c3c(Nc4ccccc4)ncnc32)[C@H](O)[C@@H]1O` [compound 97], which ED50 [13, 17] is on record?
**A.** > 5 mg/kg

**Q.** What about the IC50 ([14]; 0.5 μM [U-14C]adenosine, pH 7.0, 37° C., 20 minutes, read-out: AK Inhibition (IC50)) of the same compound?
**A.** 10 nM
